The values below come from publication PMC10704561, “Multi-Photon-Sensitive Chromophore for the Photorelease of Biologically Active Phenols” (ACS Chemical Neuroscience, 2023).

A word on the solubility: it is the concentration that dissolves in the medium under given conditions.

The test system of one data set is dLight 1.2. The data set can be described thus: Activation of dLight 1.2 on HCT 116 cells by photoreleased dopamine. Particulars: 10 μM, 405 nm light pulse. The data set is classed as cell-based. Here is the method: HCT 116 cells were grown in Dulbecco’s […] medium (DMEM) supplemented with 10% fetal bovine serum (FBS), 1% nonessential amino acids (NEAA), and maintained at 37 °C and 5% CO2. HEK 293 cells stably expressing TRPV1 channels were grown as previously described.[62]
An Olympus FluoView FV1000MPE confocal microscope was employed to image and record cells plated onto 35 mm glass-bottom 4-well plates. A 488 nm ion laser excited the dopamine and serotonin sensors dLight 1.2 and GRAB5-HT, respectively, and Fluo-4 calcium dye. FluoView 10-ASW version 4.0 (Olympus), ImageJ-Fiji, and DeltaGraph (Red Rock Software) were used for capturing, extracting, and processing the collected data. Photoactivation was conducted with 405 nm (100% laser power, 1PE) or 720 nm (10% laser power, 24 mW, 2PE) light for MeO-CyHQ-O-DA and MeO-CyHQ-O-5HT or 740 nm (20% laser power, 15 mW light) for MeO-CyHQ-O-VNA and MeO-CyHQ-O-EG. Images were captured by using a 60× immersion lens.
HCT 116 cells were grown to 70% confluency on specialized glass-bottom plates for imaging. After 24 h, the cells were transfected (70% efficiency) with either dLight 1.2 or GRAB5-HT. Before imaging, the DMEM was discarded and the cells were washed twice with HBSS. HBSS (500 μL) was added per well for imaging. DMSO was used to dissolve the compounds CyHQ-O-DA, MeO-CyHQ-O-DA, and MeO-CyHQ-O-5HT to make 1 mM stock solutions. These were then added to the wells to obtain the desired final concentrations, keeping the DMSO concentration to less than 1%, which is tolerated by the cells. Control experiments included optimization of the response of the dLight 1.2 and GRAB5-HT sensors to the release of dopamine and serotonin, respectively, through exposure to different concentrations of CyHQ-O-DA, MeO-CyHQ-O-DA, and MeO-CyHQ-O-5HT at different durations of 405 nm light. Optimizations were conducted in a similar manner for activation through 2PE. Light dose–response curves were generated by applying a 405 nm light pulse for 1, 10, 50, 100, 200, 300, 400, 500, 600, 750, and 1000 ms at 50 frame intervals for CyHQ-O-DA, MeO-CyHQ-O-DA, and MeO-CyHQ-O-5HT.

Details of data set [1]: method as in PMID 32077679. Particulars: KMOPS buffer, pH 7.2; cited from earlier work.
Details of data set [2]: method as in PMID 32077679. Particulars: cited from earlier work.
On the set-up of data set [3]: method as in PMID 32077679. Particulars: KMOPS buffer, pH 7.2; cited from earlier work. This is another data set of the same source.

Some results are limits rather than exact numbers.

Regarding `N#Cc1c(O)ccc2ccc(COc3cc(CCN)ccc3O)nc12` [CyHQ-O-DA], in the data set on dLight 1.2, the “dLight 1.2 response after photoactivation (1PE)” value is recorded as “increase in fluorescence output”. In data set [1], the ε365 is reported as 5300 M^–1 cm^–1 and the λmax is recorded as 365 nm. Besides, the “τd (time constant of spontaneous hydrolysis in buffer in the dark at room temperature)” value in data set [2] is “nh ^g (No hydrolysis (<5% detected after 7 days))”. Also, the solubility in data set [3] was above 100 µM.
